For one data set, the system named is HCoV-OC43. In words: HCoV-OC43 dose response curve analysis, virion production (plaque assay), HCT-8 cells. It is filed as cell-based. The conditions noted are these: Betacoronavirus 1, OC43, 0.05 MOI, 72 hours after infection.
Data set [1] deals with SARS-COV-2 RNA G4, position 28781 (Nucleocapsid protein). In words: CD thermal melting analysis, G4 No. 22. It is filed as binding. The conditions noted are these: G4 No. 22, position 28781, Nucleocapsid protein; 15 μM RNA G4, 30 μM compound. As for the experimental part:
(§1) For melting, the samples were heated at 25 to 95° C. at 2° C./min with a data pitch of 0.5° C. CD melting analyses were performed with and without G4-binding compounds. The ratio of RNA: G4-binding compound was set to a molar ratio of 1:2. 15 μM RNA G4 was treated with 30 μM G4-binding compound and incubated at room temperature in a buffer comprising 10 mM Tris-HCl (pH 7.5) and 100 mM KCl for 30 minutes. Ellipticity was measured at 265 nm. Thereafter, data were normalized and plotted in OriginPro 2017 to calculate Tm values.
(§2) In addition, 15 μM RNA G4 was treated with 30 μM compound and incubated, and a CD thermal melting curve of RNA G4 (15 μM) was obtained in the presence or absence of the G4-binding compound. Furthermore, the effect of G4-binding compounds on the stability of SARS-COV-2 G4 was confirmed by measuring the difference in melting temperature (ΔTm). The results are illustrated in FIGS. 6A and 6B.

Data set [2] concerns SARS-COV-2 RNA G4, position 15208 (NsP12). In words: CD thermal melting analysis, G4 No. 13. It counts as binding. Particulars: G4 No. 13, position 15208, NsP12; 15 μM RNA G4, 30 μM compound. The method, then: as §1, §2
The subject of data set [3] is SARS-COV-2 RNA G4, position 1574 (NsP2). In words: CD thermal melting analysis, G4 No. 4. It is filed as binding. The conditions noted are these: G4 No. 4, position 1574, NsP2; 15 μM RNA G4, 30 μM compound. The method, then: as §1, §2
The test system of data set [4] is SARS-COV-2 RNA G4, position 4162 (NsP3). Description: CD thermal melting analysis, G4 No. 7. It counts as binding. The conditions noted are these: G4 No. 7, position 4162, NsP3; 15 μM RNA G4, 30 μM compound. As for the experimental part:
as §1, §2

Data set [5] concerns SARS-COV-2 RNA G4, position 25197 (Surface glycoprotein). In words: CD thermal melting analysis, G4 No. 19. Particulars: G4 No. 19, position 25197, Surface glycoprotein; 15 μM RNA G4, 30 μM compound. It counts as binding. The method, then:
as §1, §2

In data set [6] the test system is SARS-COV-2 RNA G4, position 2714 (NsP2 + NsP3). Description: CD thermal melting analysis, G4 No. 5. Particulars: G4 No. 5, position 2714, NsP2 + NsP3; 15 μM RNA G4, 30 μM compound. It is filed as binding. The method, then: as §1, §2
Data set [7] deals with SARS-COV-2 RNA G4, position 14947 (NsP12). In words: CD thermal melting analysis, G4 No. 12. It counts as binding. Particulars: G4 No. 12, position 14947, NsP12; 15 μM RNA G4, 30 μM compound. As for the experimental part:
as §1, §2

In data set [8] the test system is SARS-COV-2. In words: microbe, parasite or virus in culture. It counts as cell-based. Particulars: Severe acute respiratory syndrome coronavirus 2, Vero cells, read-out: IC50, virion production.
Another data set concerns N1-WT-G4-3467 (Nsp3 G4). In words: In-vitro transcription/translation (IVT) analysis, EYFP reporter western blot, N1-WT-G4-3467. It is filed as biochemical, SARS-COV-2. Particulars: N1-WT-G4-3467, compound at 15 to 50 μM. (A western blot detects proteins with antibodies after separation by electrophoresis.)
For the next data set, the system named is Vero cells. In words: Cell viability analysis (EZ Cytox), Vero cells. It counts as cell-based. Particulars: up to 75 μM after 48 hours. As for the experimental part:
(§3) Human embryonic kidney (HEK293T) cells and Vero cells were maintained in high-glucose Dulbecco's Modified Eagle's Medium (DMEM) supplemented with 10% fetal bovine serum (FBS) and 1% penicillin-streptomycin, and cultured in a humidified incubator at 37° C. and 5% CO2.
(§4) Cytotoxicity was analyzed using an EZ Cytox assay kit (DogenBio, Korea). HEK293T and Vero cells were put into a 96-well plate at a density of 2×10^4 cells/well in a medium volume of 100 μl/well and cultured at 37° C. for 24 hours. After 24 hours, the cells were treated with the G4-binding compound at various concentrations (0.1, 0.5, 1, 2.5, 5.5, 7.5, 10, 25, 50, and 75 μM) and cultured at 37° C. for 24 hours or 48 hours. Cell viability (%) was calculated by measuring the absorbance value at 455 nm (Luminescence multi-mode microplate reader Synergy™ Neo2) and using the following Equation 1. All experiments were performed in triplicate, and cells untreated with the compound were used as a control. DMEM with the EZ Cytox reagent was used as a blank.
(§5) The toxicity of PDS and PhenDC3 was confirmed in HEK293T cells and Vero cells. The results are illustrated in FIGS. 7A to 7D.

The next data set concerns N1-WT-G4-353 (Nsp1 G4). In words: In-vitro transcription/translation (IVT) analysis, EYFP reporter western blot, N1-WT-G4-353. It counts as biochemical, SARS-COV-2.
Another data set relates to N1-Mut-G4-3467. It counts as biochemical, SARS-COV-2. Particulars: N1-Mut-G4-3467, 5, 15, 25 and 50 μM.
The subject of the next data set is HEK293T cells. Description: Cell viability analysis (EZ Cytox), HEK293T cells. It is filed as cell-based, Human. Particulars: up to 75 μM. The method, then:
as §3, §4, §5

Data set [9] has as its system SARS-COV-2. In words: microbe, parasite or virus in culture. It counts as cell-based. The conditions noted are these: Severe acute respiratory syndrome coronavirus 2; Vero cells, 0.0125 MOI, 24 hours; read-out: IC50, suppressing SARS-COV-2 infection (N protein expression).

Molecules are shown by their SMILES. Like-named read-outs stand apart in the source and are kept apart here.

In general, IC50 refers to the concentration at which inhibition is half-maximal. Broadly, the ΔTm is the shift of the melting midpoint relative to a reference.

Consider `CN1CCC[C@H]1CCNC(=O)c1cn2c3c(c(N4CCC(c5cnccn5)C4)c(F)cc3c1=O)Oc1cc3ccccc3cc1-2` (stereo partly drawn) [CX-3543, 15-fluoro-N-[2-[(2S)-1-methylpyrrolidin-2-yl]ethyl]-18-oxo-14-(3-pyrazin-2-ylpyrrolidin-1-yl)-12-oxa-1-azapentacyclo [11.7.1.0^2,11.0^4,9.0^17,21]henicosa-2,4,6,8, 10, 13 (21), 14,16,19-nonaene-19-carboxamide], for which the IC50 with HCoV-OC43 was determined as 1400 nM. Moreover, the “Tm in ° C. with compound” value worked out at 82.9 °C in data set [1]; 63.87 °C in data set [2]; 53.43 °C in data set [3]; 58.94 °C in [4]; 66.57 °C in [5]; 57.69 °C in [6]. The “Tm in ° C. with compound” value in data set [7] came to 58.11 °C. In addition, the shift in melting temperature (ΔTm) in [1] is 18.2 °C; in data set [2], 6.7 °C; in [3] it was 0.05 °C; in data set [4], 2.05 °C; in data set [5] it was −4.62 °C; in data set [6] it was −13.45 °C. The ΔTm in [7] came out at 0.9 °C.

As for `NCCOc1cc(C(=O)Nc2cc(OCCN)c3ccccc3n2)nc(C(=O)Nc2cc(OCCN)c3ccccc3n2)c1` [PDS, 4-(2-aminoethoxy)-N2,N6-bis(4-(2-aminoethoxy)quinolin-2-yl)pyridine-2,6-dicarboxamide], the IC50 in the data set with SARS-COV-2 [8] (24 hours after infection) came to 1450 nM; with SARS-COV-2 [8] (48 hours after infection), 2770 nM; with SARS-COV-2 [9] it was 9.45 µM. Moreover, the “EYFP expression suppressed by” value in the data set with N1-WT-G4-3467 (Nsp3 G4) came out at 60%. Besides, the “cytotoxicity in Vero cells” value with Vero cells is recorded as “no cytotoxicity was observed”. Further, the “EYFP expression reduced by” value with N1-WT-G4-353 (Nsp1 G4) (N1-WT-G4-353, compound at 50 μM) was determined as 65%. For the same molecule, in the data set on N1-WT-G4-353 (Nsp1 G4) (N1-WT-G4-353, concentrations less than 50 μM), the “suppressing EYFP reporter expression” value was “not effective”. Also, the “Tm in ° C. with compound” value is 60.16 °C in data set [2]; 56.03 °C in data set [4]; 68.63 °C in data set [5]; 86.49 °C in data set [6]; 82.16 °C in [7]. The ΔTm in data set [2] was 2.99 °C; in [4], −0.86 °C; in data set [5], −2.56 °C; in data set [6], 15.35 °C; in data set [7], 24.95 °C. In addition, in the data set on N1-Mut-G4-3467, the “EYFP expression, concentration-dependent suppression” value was “not suppressed”. The “cytotoxicity in HEK293T cells” value in the data set with HEK293T cells is recorded as “safe to use”.

The values are drawn from US20240390328A1, “PHARMACEUTICAL COMPOSITION CONTAINING AS ACTIVE INGREDIENT COMPOUND CONJUGATED TO G4 STRUCTURES OF CORONAVIRUSES FOR PREVENTION OR TREATMENT OF CORONAVIRUS INFECTIOUS DISEASES” (priority 2020, published 2024).
